# Columns and labels:
# [1] = biological target: T1, Lysine-specific demethylase 3A (Homo sapiens, UniProt Q9Y4C1); assay: Inhibition of KDM3A (2 to 1322 residues)(unknown origin) by Alphalisa assay
# T1 sequence (Q9Y4C1 whole entry): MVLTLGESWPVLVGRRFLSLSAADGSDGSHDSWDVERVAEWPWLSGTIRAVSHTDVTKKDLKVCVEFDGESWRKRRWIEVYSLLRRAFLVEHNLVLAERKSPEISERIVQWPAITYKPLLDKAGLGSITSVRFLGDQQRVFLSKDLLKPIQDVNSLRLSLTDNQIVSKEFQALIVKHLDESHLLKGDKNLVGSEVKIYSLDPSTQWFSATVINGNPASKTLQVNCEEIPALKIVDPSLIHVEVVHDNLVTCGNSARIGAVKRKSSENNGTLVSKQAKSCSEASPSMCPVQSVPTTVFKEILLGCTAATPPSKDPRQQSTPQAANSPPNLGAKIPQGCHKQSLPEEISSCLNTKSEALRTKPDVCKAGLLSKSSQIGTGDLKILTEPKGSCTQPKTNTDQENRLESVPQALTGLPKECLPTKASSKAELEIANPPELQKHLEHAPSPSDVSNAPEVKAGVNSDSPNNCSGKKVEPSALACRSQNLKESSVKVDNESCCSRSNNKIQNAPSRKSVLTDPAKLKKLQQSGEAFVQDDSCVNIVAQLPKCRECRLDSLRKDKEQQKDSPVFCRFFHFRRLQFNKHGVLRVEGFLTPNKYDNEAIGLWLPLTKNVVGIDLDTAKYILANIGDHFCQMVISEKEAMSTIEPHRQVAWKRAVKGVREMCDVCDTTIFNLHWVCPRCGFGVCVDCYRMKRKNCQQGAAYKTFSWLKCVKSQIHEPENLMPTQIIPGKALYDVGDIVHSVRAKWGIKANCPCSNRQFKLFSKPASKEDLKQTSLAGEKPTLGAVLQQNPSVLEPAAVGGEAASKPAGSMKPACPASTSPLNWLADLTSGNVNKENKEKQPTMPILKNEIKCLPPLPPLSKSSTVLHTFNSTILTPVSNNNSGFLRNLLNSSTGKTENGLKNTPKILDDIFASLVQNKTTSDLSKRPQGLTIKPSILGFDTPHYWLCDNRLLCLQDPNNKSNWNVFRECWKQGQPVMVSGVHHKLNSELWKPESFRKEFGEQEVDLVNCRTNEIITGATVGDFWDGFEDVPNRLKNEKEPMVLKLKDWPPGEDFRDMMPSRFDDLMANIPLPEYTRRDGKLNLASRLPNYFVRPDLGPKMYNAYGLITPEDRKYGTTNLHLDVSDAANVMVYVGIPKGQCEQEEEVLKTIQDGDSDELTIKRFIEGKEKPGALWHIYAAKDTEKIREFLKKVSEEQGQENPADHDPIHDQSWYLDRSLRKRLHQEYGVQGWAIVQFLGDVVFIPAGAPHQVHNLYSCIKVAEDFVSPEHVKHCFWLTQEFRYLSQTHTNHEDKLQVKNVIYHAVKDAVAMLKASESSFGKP
# [2] = test system: Macrophage; assay: Antiinflammatory activity against human primary macrophages assessed as inhibition of LPS-activated TNF-alpha production incubated for 6 hrs by ELISA; format: functional, cell-based
# [3] = biological target: T2, Lysine-specific demethylase 4C (Homo sapiens, UniProt Q9H3R0); assay: Inhibition of epitope-tagged full length KDM4C (unknown origin) transfected in human U2OS cells using H3K9me3 peptide as substrate; format: cell-based
# T2 sequence (Q9H3R0 whole entry): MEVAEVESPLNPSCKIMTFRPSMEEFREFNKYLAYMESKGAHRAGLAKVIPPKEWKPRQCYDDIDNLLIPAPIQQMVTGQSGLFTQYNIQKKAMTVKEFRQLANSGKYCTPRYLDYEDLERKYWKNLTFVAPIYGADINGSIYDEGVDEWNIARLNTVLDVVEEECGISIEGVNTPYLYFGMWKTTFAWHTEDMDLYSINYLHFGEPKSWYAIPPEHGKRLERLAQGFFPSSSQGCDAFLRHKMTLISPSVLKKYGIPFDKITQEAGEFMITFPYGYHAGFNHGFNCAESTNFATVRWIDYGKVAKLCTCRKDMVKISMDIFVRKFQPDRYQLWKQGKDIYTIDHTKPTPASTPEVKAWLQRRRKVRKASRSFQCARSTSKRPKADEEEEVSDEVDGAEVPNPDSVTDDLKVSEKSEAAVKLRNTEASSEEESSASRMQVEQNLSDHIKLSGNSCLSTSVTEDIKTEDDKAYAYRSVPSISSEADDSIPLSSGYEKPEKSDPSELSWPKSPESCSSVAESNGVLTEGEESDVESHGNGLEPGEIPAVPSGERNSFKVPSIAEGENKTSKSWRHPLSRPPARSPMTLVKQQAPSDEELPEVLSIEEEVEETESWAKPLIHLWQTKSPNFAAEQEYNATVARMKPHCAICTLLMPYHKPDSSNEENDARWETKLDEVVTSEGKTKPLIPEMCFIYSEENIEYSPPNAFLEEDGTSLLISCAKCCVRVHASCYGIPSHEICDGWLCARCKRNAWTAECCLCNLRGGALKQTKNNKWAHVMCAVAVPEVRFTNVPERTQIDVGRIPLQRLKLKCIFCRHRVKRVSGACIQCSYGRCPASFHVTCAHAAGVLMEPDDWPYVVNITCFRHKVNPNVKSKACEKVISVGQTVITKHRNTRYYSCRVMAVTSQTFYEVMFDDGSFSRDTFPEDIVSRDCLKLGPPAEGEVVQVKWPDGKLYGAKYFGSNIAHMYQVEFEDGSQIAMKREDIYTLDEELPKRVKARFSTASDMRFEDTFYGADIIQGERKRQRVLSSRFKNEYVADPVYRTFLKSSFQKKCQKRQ
# [4] = Inhibition of epitope-tagged KDM5B (1 to 752 residues)(unknown origin) transfected in human U2OS cells using H3K4me2 peptide as substrate; format: cell-based
structure (smiles),measurement,setting,value
CCOC(=O)CCNc1cc(N2CCc3ccccc3CC2)nc(-c2ccccn2)n1,IC50,[1],8.5 µM
same,IC50,[2],9 µM
same,IC50,[3],7.3 µM
same,IC50,[4],3.1 µM
